Experimental data published in patent publication US20160010059A1, “EXPANSION OF HEMATOPOIETIC PROGENITOR CELLS BY HISTONE METHYLTRANSFERASE G9a INHIBITION” (The Regents of the University of California, priority 2013, published 2016).
“Also recorded” adds a separate entry of the source.

Columns and labels:
histone acetylation = assay: Histone western blot after HDAC inhibitor treatment (assay sensitivity control); type: cell-based, mouse; settings: 37° C. for 2 hours
Description: (§1) For western blot, FACS sorted cells were lysed in RIPA buffer, and run in a 15% gradient SDS-page (BIO-RAD). Histone modifications were assessed with antibodies against H3k27me3 (07-449 Millipore), H3 Acetylated (06-599), H4K16Ac (07-329), H3k4me3 (07-473), total H3 (06-755), H3k36me3 (Ab9050 abcam), H3k9me2 (Ab1220), H3k9me3 (Ab8898). Cells were incubated with the HDAC inhibitor trichostatin A (Cell signaling) at 37° C. for 2 hours to induce histone acetylation. For immunostaining cells were sorted onto poly-lysine coated slides, fixed with 2% PFA, permeabilized with 0.1% triton-x in PBS, and stained with H3k9me3 (Ab8898), Lamin B (sc-6217) antibodies followed by an Alexa488-Donkey-α-goat and a Alexa594-goat-α-rabbit secondary antibody (Invitrogen) plus DAPI. Images were acquired using a PerkinElmer Volocity spinning disk confocal microscope. Image analysis was done using ImageJ software (Schneider et al., 2012).

HSC-related genes = assay: Global gene expression analysis (RNA-seq) of KLS fractions after 5 days in vitro culture; type: cell-based, mouse; settings: 5 days culture
[1] = tested on: H3k9me2 on putative G9a targets; assay: ChIP-qPCR of histone marks on putative G9a targets identified by RNA-seq; type: cell-based, mouse; settings: n=3
KLS cells = assay: Replating of cultured cells into liquid culture with SCF and TPO (proliferation capacity); type: cell-based, mouse
[2] = tested on: lethally irradiated C57BL/6 mice; assay: Transplantation of cultured HSCs into lethally irradiated mice (chimerism); type: in vivo, mouse
H3K9me2 / H3K9me3 = assay: Histone western blot and immunofluorescence in UNC0638 treated cells; type: cell-based, mouse
Description: as §1

CC(/C=C/C(=O)NO)=C\[C@@H](C)C(=O)c1ccc(N(C)C)cc1 [trichostatin A]
global levels of histone acetylation (histone acetylation): significantly increased the global levels of histone acetylation

COc1cc2c(NC3CCN(C(C)C)CC3)nc(C3CCCCC3)nc2cc1OCCCN1CCCC1 [UNC0638]
downregulated genes (HSC-related genes; Egr1, Ndn, Robo4): significantly downregulation of some genes | upregulated genes (HSC-related genes; vs DMSO control, DESEQ padj<0.01, e.g. Sox6, Itga2b, Gata1, Fgf3): significant number of HSC-related genes upregulated; also recorded: significant number of upregulated HSC-related genes | levels of H3k9me2 on putative G9a targets [1]: significantly lower amount of H3K9me2 at their promoter; also recorded: significantly reduced levels of H3k9me2 | levels of H3k9me3 on putative G9a targets [1]: trend to lower amount of H3K9me3; also recorded: mild trend toward H3k9me3 reduction | levels of active mark H3K4me3 on putative G9a targets [1]: no differences for the active mark H3K4me3 | proliferation capacity (KLS cells; after day 5 of in vitro culture): increase proliferation capacity after day 5 | proliferation capacity (KLS cells; replating equal amounts of KLS after 5 days culture): equal proliferation capacity as the KLS control cells | number of cells (KLS cells; replating equal amounts of Kit+ cells, 10 days in culture): significant higher number of cells after 10 days in culture | lineage readout after transplantation ([2]; 24 hrs or 5 days culture): no defects in lineage potential; also recorded: readout in all 5 lineages | Percentage of chimerism / engraftment ([2]; cells cultured for 24 hrs with UNC0638 before transplantation, n=10 per group): minor increase in engraftment; also recorded: positive trend in higher chimerism for UNC0638 treated cells in all myeloid and lymphoid lineages, though not significant | Percentage of chimerism / engraftment ([2]; cells cultured for 5 days on AFT024 feeder layers with UNC0638 before transplantation, n=10): modest increase in the levels of engraftment; also recorded: significantly higher % of GM and B chimerism | amount of H3K9me2 by western blot (H3K9me2 / H3K9me3; UNC0638 treated cells): effect is highly enriched in the KLS fraction | distribution of H3K9me3 by immunofluorescence (H3K9me2 / H3K9me3; compared to the DMSO treated control): more disperse distribution of this histone mark
